Format in all cases: in vivo, human
One assay relates to PsO patient. The assay can be described thus: Clinical metadata of pre- and post-secukinumab-treated patient. The source says:
IL-17A blocking therapies are lauded for their clinical success, often achieving complete remission of skin plaques within 6 months of treatment (Ghoreschi et al., 2021). This remarkable clinical response provided a unique opportunity to examine if HIF1α levels normalize with successful therapy. Therefore, pre- and post-treatment biopsies were obtained from a secukinumab (anti-IL-17A) treated PsO patient who achieved complete clinical remission (Psoriatic Area and Severity Score (PASI) 100, or 100% psoriasis plaque clearance) (FIG. 3A and Table 1). Pre- and 12-weeks post-therapy biopsies from both lesional and non-lesional skin were taken <0.5 cm apart from the same patient, ensuring that post-treatment biopsies were taken from resolved lesions and not adjacent uninvolved skin (FIG. 8A).
Human skin samples. Following anesthetization with 2% lidocaine injection, 4 mm full-thickness punch biopsies were performed on lesional skin, and matched non-lesional skin located contralaterally. In healthy volunteers, skin biopsy samples were obtained from the trunk and/or extremities. Post-therapy biopsies from secukinumab-treated patients were taken 5 to 10 mm away from the original biopsy site within the original lesion area, discerned by hyperpigmentation, and at contralateral non-lesional skin.

In assay [1] the test system is HIF1A, IL17RA, and IL17RC. Description: Spatial transcriptomics of pre- and post-secukinumab lesional and non-lesional skin. Particulars: following therapy, 12 weeks; one patient. The source says:
IL-17A blocking therapies are lauded for their clinical success, often achieving complete remission of skin plaques within 6 months of treatment (Ghoreschi et al., 2021). This remarkable clinical response provided a unique opportunity to examine if HIF1α levels normalize with successful therapy. Therefore, pre- and post-treatment biopsies were obtained from a secukinumab (anti-IL-17A) treated PsO patient who achieved complete clinical remission (Psoriatic Area and Severity Score (PASI) 100, or 100% psoriasis plaque clearance) (FIG. 3A and Table 1). […]
When compared to contralateral non-lesional skin, the PsO lesion was enriched for HIF1A, IL17RA, and IL17RC (FIGS. 3B and 8H). […] As a complementary analysis, HIF1α protein expression was measured in a cohort of 10 patients treated with etanercept (anti-TNFα) that achieved response (PASI 75 or greater) at 12 weeks (Table 2) (Stinco et al., 2019). […]
Spatial transcriptomics. […] Spot selection and image alignment: Following probe cleavage, fluorescent images were taken on a Hamamatsu NanoZoomer whole slide fluorescence scanner. […] The Space Ranger mkfastq function was used for sample demultiplexing and converting spatial barcodes and reads into FASTQ format. […]

Assay [2] has as its system HIF1α-inhibitor downregulated gene signature. The assay can be described thus: Transcriptional program response analyses to clinical trial data (GSVA, NCT01537432). Particulars: baseline and 1, 4, 12 weeks of secukinumab or placebo. An excerpt:
The dramatic transcriptional response following BAY 87-2243 treatment prompted investigation of the role of HIF1α-modulated genes on PsO disease pathogenesis. Toward this end, HIF1α-modulated genes were projected onto a longitudinal analysis of the transcriptional response from 33 patients following either placebo (9 patients) or anti-IL-17A blocking (secukinumab) therapy (24 patients) (NCT01537432) (Krueger et al., 2019).
Transcriptional program response analyses to clinical trial data. Scoring methods: To evaluate if gene signatures derived from differential gene expression in human biopsy cultures or topical HIF1α inhibitor treatment in IMQ-treated murine model would be affected by anti-IL17 treatment, the genes down regulated by HIF1α inhibitor (HIF1α-signature) were projected into the longitudinal gene expression profiles of 31 psoriasis patients enrolled in a randomized clinical trial testing the efficacy of Secukinumab 300 mgs (n=22) versus Placebo (n=9) (Krueger et al., 2019). The overall expression/activity of the signatures was estimated using gene set variation analysis (GSVA). GSVA, a non-parametric and non-supervised method, estimated a sample-wise enrichment score for each gene set on the RCT cohorts. Such enrichment scores, representing overall gene set activity, were then modeled to evaluate the treatment effect and the association with treatment response. […]

Setting [3] is: post-treatment, 12 weeks, one patient (ST-15), pre-treatment value 5.

Data on one substance can be found in patent US20250075218A1, “HIF1A OR GLUT1 INHIBITION IN INFLAMMATORY SKIN DISEASES” (New York University, priority 2023, published 2025).

In the case of secukinumab, the “psoriasis plaque clearance (PASI 100, complete clinical remission)” value with PsO patient (one secukinumab-treated PsO patient) amounted to 100%. For the same substance, in the assay with PsO patient (post-treatment, 12 weeks post-therapy, one patient (ST-15; AL and ANL samples), pre-treatment value 8), the “Body surface area (BSA) with psoriasis (%)” value is 0%. The Deformity with PsO patient (post-treatment, 12 weeks, one patient (ST-15), pre-treatment value 0) came out at 0. Moreover, the Enthesitis in the assay with PsO patient (post-treatment, 12 weeks, one patient (ST-15), pre-treatment value 1) is recorded as 0. In addition, the Dactylitis in the assay with PsO patient (post-treatment, 12 weeks, one patient (ST-15), pre-treatment value 4) amounted to 0. Besides, in the assay with PsO patient (setting [3]), the PASI amounted to 0 and the “Phys GA (global)” value is recorded as 1. Further, the “Swollen joint count (SJC)” value in the assay on PsO patient (post-treatment, 12 weeks, one patient (ST-15), pre-treatment value 11) is listed as 0. Besides, in the assay with PsO patient (post-treatment, 12 weeks, one patient (ST-15), pre-treatment value 12), the “Tender joint count (TJC)” value was 0. Moreover, the “expression of HIF1A, IL17RA, and IL17RC in resolved skin (post-treatment L)” value in assay [1] is listed as “comparable to that of non-lesional skin”. Further, in assay [2], the “GSVA score of gene signature downregulated by HIF1α inhibitor, treatment group vs placebo” value is recorded as “significantly distinguished”.
